This passage reports pest or weed control, inhibition and chromatographic logP results from patent US20230192617A1, “AZABICYCLIC(THIO)AMIDES AS FUNGICIDAL COMPOUNDS” (Bayer CropScience Aktiengesellschaft, priority 2020, published 2023).

What is called inhibition is the drop in the measured response relative to a control, in per cent. The chromatographic logP is a lipophilicity value derived from retention on a column. Read a low chromatographic logP as a more hydrophilic compound.

Data set [1] has as its system Sphaerotheca fuliginea. Kind of data set: In vivo preventive test on Sphaerotheca fuliginea (powdery mildew on cucurbits). Particulars: Podosphaera fuliginea, 192 h; 500 ppm of active ingredient; preventive spray on gherkin; evaluated 8 days after inoculation; read-out: efficacy. The method, then:
B-4. in vivo preventive test on Sphaerotheca fuliginea (powdery mildew on cucurbits) [table] The active ingredients were made soluble and homogenized in a mixture of Dimethyl sulfoxide/Acetone/Tween® 80 and then diluted in water to the desired concentration. The young plants of gherkin were treated by spraying the active ingredient prepared as described above. Control plants were treated only with an aqueous solution of Acetone/Dimethyl sulfoxide/Tween® 80. After 24 hours, the plants were contaminated by spraying the leaves with an aqueous suspension of Sphaerotheca fuliginea spores. The contaminated gherkin plants were incubated for 8 days at 20° C. and at 70-80% relative humidity.

Data set [2] relates to Colletotrichum lindemuthianum. In words: B-8. Colletotrichum lindemuthianum in vitro cell test. The class given is cell-based. Particulars: 144 h, 20 ppm of active ingredient, 6 days incubation, liquid culture, absorbance, read-out: efficacy (inhibition of fungal growth). The essentials:
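Liquid-culture germination/growth test: compounds in ≤1% final DMSO were added to spore-containing medium. Fungal growth was quantified spectrophotometrically after 6 days of incubation and expressed as inhibition versus untreated controls.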

Data set [3] is described as follows: Measurement of Log P values by HPLC on reversed phase columns (EEC directive 79/831 Annex V.A8). To be noted: reversed phase HPLC column. The format is physicochemical. The essentials: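 Log P derived from retention on reversed-phase columns (EEC directive 79/831 Annex V.A8), LC-UV, acetonitrile gradient 10% to 95% against water containing 0.1% formic acid, 0.001 M ammonium acetate, or 0.1% phosphoric acid; several values per method separated by "+".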

The subject of data set [4] is Alternaria brassicae. In words: In vivo preventive test on Alternaria brassicae (leaf spot on radish or cabbage). To be noted: 500 ppm of active ingredient, preventive spray on radish or cabbage, evaluated 3 to 4 days after inoculation, read-out: efficacy. The procedure, abridged:
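Protective spray on young radish or cabbage: actives in water diluted from DMSO/acetone/Tween 80, with solvent-only controls. Leaves were challenged after 24 h with a spore suspension, and plants were held at 100% RH, 20 °C for 3 to 4 days.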

Data set [5] has as its system Alternaria alternata. Kind of data set: Alternaria alternata in vitro cell test. The class given is cell-based. Particulars: 120 h, 20 ppm of active ingredient, liquid culture, 5 days incubation, spectrometric measurement of mycelium growth, read-out: efficacy (inhibition of fungal growth). The procedure, abridged: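 Spectrometric readout of mycelial growth after 5-day incubation gauged compound effects on spore germination and growth of A. alternata in liquid medium. Compounds were delivered in DMSO at ≤1% final. Absorbance was compared with untreated controls to give inhibition.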

Data set [6] relates to Botrytis cinerea. In words: In vivo preventive test on Botrytis cinerea (grey mould). Particulars: 500 ppm of active ingredient, preventive spray on gherkin or cabbage, evaluated 4 to 5 days after inoculation, read-out: efficacy. The procedure, abridged:
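Preventive spray on cabbage or gherkin seedlings, with compound formulated in DMSO/acetone/Tween 80 and water-diluted, preceded spore inoculation by 24 hours. Cabbage was held 4 to 5 days at 20° C., 100% relative humidity; gherkin 4 to 5 days at 17° C., 90% relative humidity.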

The test system of data set [7] is Botrytis cinerea. In words: B-11. Botrytis cinerea in vitro cell test. The format is cell-based. Particulars: 144 h, 20 ppm of active ingredient, 6 days incubation, liquid culture, absorbance, read-out: efficacy (inhibition of fungal growth). The method, then:
(§1) B-11. Botrytis cinerea In Vitro Cell Test [table] Fungicides were solubilized in DMSO and the solution used to prepare the required range of concentrations. The final concentration of DMSO used in the assay was ≤1%. A spore suspension of B. cinerea was prepared and diluted to the desired spore density. Fungicides were evaluated for their ability to inhibit spore germination and mycelium growth in liquid culture assay. The compounds were added in the desired concentration to the culture medium with spores. After 6 days incubation, fungi-toxicity of compounds was determined by spectrometric measurement of mycelium growth. Inhibition of fungal growth was determined by comparing the absorbance values in wells containing the fungicides with the absorbance in control wells without fungicides.

Data set [8] concerns Pyrenophora teres. In words: B-10. Pyrenophora teres in vitro cell test. The format is cell-based. Particulars: 144 h, 20 ppm of active ingredient, 6 days incubation, liquid culture, absorbance, read-out: efficacy (inhibition of fungal growth). The protocol: as §1, with “B-10. Pyrenophora teres” for “B-11. Botrytis cinerea”, “P. teres” for “B. cinerea”
Setting [9] is: method [a]: LC-UV, acidic range, 0.1% formic acid in water and acetonitrile as eluent.

On to `Cc1cccc(Oc2nnc3ccccc3c2C(=O)N[C@@H](C)c2cccc(C(F)(F)F)c2)c1` (racemic) [I-020], for which the figures for the pest or weed control at 500 ppm in data set [1], in data set [4] and in data set [6] were 70 to 79%, 90 to 100% and 90 to 100%, respectively. The figures for the inhibition at 20 ppm in data set [2] and in data set [5] were 70 to 79% and 80 to 89%, respectively. This molecule returned a chromatographic logP in data set [3] (setting [9]) of 3.79.

With `C[C@H](NC(=O)c1c(Oc2cncc(C(F)(F)F)c2)nnc2ccccc12)c1cccc(C(F)(F)F)c1` (racemic) [I-028], the pest or weed control at 500 ppm in data set [1] and in data set [6] was 90 to 100% throughout. For the same molecule, the inhibition at 20 ppm in data set [2] lay in the range of 80 to 89%. In addition, in data set [3] (setting [9]), the chromatographic logP came to 3.57.

With `O=C(NC[C@H](F)c1ccc(Br)cc1Cl)c1c(Oc2cccc(C(F)(F)F)c2)cnc2ccccc12` (racemic) [I-041], the pest or weed control at 500 ppm in data set [1], in data set [4] and in data set [6] was 90 to 100% each time. The inhibition at 20 ppm in data set [2] and in data set [5] was 90 to 100% in each case. In addition, the chromatographic logP in data set [3] (setting [9]) is 4.56.

In the case of `Cc1ccc2c(c1)[C@@H](NC(=O)c1c(Oc3cccc(C(F)(F)F)c3)nnc3ccccc13)COC2` (racemic) [I-083], the inhibition at 20 ppm lay in the range of 90 to 100% in data set [2], 90 to 100% in data set [7], 90 to 100% in data set [8] and 80 to 89% in data set [5]. This molecule also gave a chromatographic logP in data set [3] (setting [9]) of 3.73. The pest or weed control at 500 ppm in data set [4] and in data set [6] was 90 to 100% in each case.

Regarding `O=C(N[C@H]1CCCc2cc(Br)ccc21)c1c(Oc2cccc(C(F)(F)F)c2)cnc2c1OCCO2` (racemic) [I-111], the pest or weed control at 500 ppm in data set [1], in data set [4] and in data set [6] was 90 to 100% in each case. Moreover, the inhibition at 20 ppm in data set [2] was in the range of 90 to 100%. Besides, the chromatographic logP in data set [3] (setting [9]) came to 4.03; in data set [3] (method [b]: LC-UV, neutral range, 0.001 molar ammonium acetate solution in water and acetonitrile as eluent), 3.99.

For the molecule `COc1ccc2nnc(Oc3cccc(C(F)(F)F)c3)c(C(=O)NCCc3ccc(C)cc3C)c2c1` [I-010], the pest or weed control at 500 ppm lay within 90 to 100% in data set [1], 80 to 89% in data set [4] and 90 to 100% in data set [6]. In data set [3] (setting [9]), the chromatographic logP is 4.29. The inhibition at 20 ppm in data set [5] fell in the range of 90 to 100%.

As for `O=C(NCC(F)(F)c1ccc(Cl)cc1)c1c(Oc2cccc(Cl)c2)nnc2ccccc12` [I-012], the pest or weed control at 500 ppm in data set [1], in data set [4] and in data set [6] was 90 to 100% in each case. Further, the inhibition at 20 ppm in data set [2] and in data set [5] was 90 to 100% throughout.

Turning to `Cc1ccc(C(F)(F)CNC(=O)c2c(Oc3cccc(C(F)(F)F)c3)cnc3ccccc23)c(C)c1` [I-039, N-[2-(2,4-dimethylphenyl)-2,2-difluoro-ethyl]-3-[3-(trifluoro-methyl)phenoxy]quinoline-4-carboxamide], the pest or weed control at 500 ppm in data set [1] and in data set [6] was 90 to 100% throughout. Also, the inhibition at 20 ppm in data set [2] and in data set [5] was 90 to 100% throughout. In data set [3] (setting [9]), this molecule showed a chromatographic logP of 4.46.

Take `Cc1ccc(C(F)(F)CNC(=O)c2c(Oc3cccc(C(F)(F)F)c3)nnc3cc(C)ccc23)c(C)c1` [I-044]: the results for the pest or weed control at 500 ppm in data set [1] and in data set [4] were 80 to 89% and 90 to 100%, respectively. In addition, the inhibition at 20 ppm in data set [2] and in data set [5] was 90 to 100% in each case. For the same molecule, the chromatographic logP in data set [3] (setting [9]) was found to be 4.45.

In the case of `CC(=O)c1ccc(C(F)(F)CNC(=O)c2c(Oc3cccc(C(F)(F)F)c3)nnc3ccccc23)c(Cl)c1` [I-069], the inhibition at 20 ppm in data set [2] fell in the range of 70 to 79%; in data set [7], 90 to 100%; in data set [8] it was 90 to 100%; in data set [5] it was 80 to 89%. In data set [3] (setting [9]), this molecule yielded a chromatographic logP of 3.84. Besides, the pest or weed control at 500 ppm in data set [4] and in data set [6] was 90 to 100% throughout.

As to `COCc1ccc(C(F)(F)CNC(=O)c2c(Oc3cccc(C(F)(F)F)c3)nnc3ccccc23)c(Cl)c1` [I-074], the inhibition at 20 ppm in data set [2], in data set [7], in data set [8] and in data set [5] was 90 to 100% throughout. This molecule also gave a chromatographic logP in data set [3] (setting [9]) of 4.12. Also, the pest or weed control at 500 ppm in data set [4] and in data set [6] was 90 to 100% throughout.

As to `O=C(NCCc1ccc2c(c1)OCO2)c1c(Oc2cccc(C(F)(F)F)c2)nnc2ccccc12` [I-092], the inhibition at 20 ppm in data set [2], in data set [7], in data set [8] and in data set [5] was 90 to 100% in each case. In data set [3] (setting [9]), the chromatographic logP worked out at 3.45. The pest or weed control at 500 ppm in data set [4] and in data set [6] was 90 to 100% each time.

As to `Cc1scc(CCNC(=O)c2c(Oc3cccc(C(F)(F)F)c3)nnc3ccccc23)c1C` [I-093], the inhibition at 20 ppm fell in the range of 90 to 100% in data set [2], 90 to 100% in data set [7], 90 to 100% in data set [8] and 70 to 79% in data set [5]. The molecule further registered a chromatographic logP in data set [3] (setting [9]) of 4.11. The pest or weed control at 500 ppm in data set [4] and in data set [6] was 90 to 100% throughout.

On to `Cc1ccc(C(F)(F)CNC(=O)c2c(Oc3cccc(Cl)c3F)cnc3nccnc23)c(C)c1` [I-100], for which the inhibition at 20 ppm in data set [2], in data set [7], in data set [8] and in data set [5] was 90 to 100% in each case. Also, the chromatographic logP in data set [3] (setting [9]) came to 3.38. Besides, the pest or weed control at 500 ppm in data set [4] and in data set [6] was 90 to 100% in each case.

With `Cc1ccc(C(F)(F)CNC(=S)c2c(Oc3cccc(C(F)(F)F)c3)cnc3ccccc23)c(C)c1` [I-159], the pest or weed control at 500 ppm in data set [1] was 90 to 100%. Besides, in data set [2], the inhibition at 20 ppm is 70 to 79%. This molecule also had a chromatographic logP in data set [3] (setting [9]) of 5.17.

For the molecule `O=C(NCC(F)(F)c1ccccc1Cl)c1c(Oc2cccc(C(F)(F)F)c2)nnc2ccccc12` [I-214], the inhibition at 20 ppm in data set [2], in data set [7], in data set [8] and in data set [5] was 90 to 100% in each case. The chromatographic logP in data set [3] (setting [9]) worked out at 4.12. Also, the pest or weed control at 500 ppm in data set [4] and in data set [6] was 90 to 100% in each case.

Turning to `O=C(NCCc1cccs1)c1c(Oc2cccc(C(F)(F)F)c2)nnc2ccccc12` [I-237], the inhibition at 20 ppm in data set [2] is 80 to 89%; in data set [7], 90 to 100%; in data set [8], 90 to 100%; in data set [5] it was 90 to 100%. This molecule registered a chromatographic logP in data set [3] (setting [9]) of 3.53. Also, the pest or weed control at 500 ppm in data set [4] was 90 to 100%; in data set [6], 70 to 79%.

Consider `O=C(NCCn1cc(Cl)cn1)c1c(Oc2cccc(C(F)(F)F)c2)nnc2ccccc12` [I-244], for which the inhibition at 20 ppm in data set [2], in data set [7], in data set [8] and in data set [5] was 90 to 100% throughout. This molecule also had a chromatographic logP in data set [3] (setting [9]) of 3. In addition, the pest or weed control at 500 ppm in data set [4] was in the range of 90 to 100%; in data set [6], 80 to 89%.
